US8354526B2, “Pyrido [4, 3-D] pyrimidinone derivatives as kinase inhibitors” (IRM LLC, priority 2008, dated 2013)
Like-named read-outs stand apart in the source and are kept apart here.

Legend:
hSyk (full length) = biological target: T1, hSyk (full length) (Homo sapiens, UniProt P43405); assay: Inhibition of enzymatic Syk kinase activity (HTRF); assay type: biochemical
T1 construct: Purified recombinant hSyk (full length)
Description: (§1) Purified recombinant hSyk (full length) and Zap70 (kinase domain) diluted in assay buffer are dispensed in 384 well proxi-plates. […] 50 nL of diluted compounds are added to the enzyme solutions and incubated for […] at room temperature, after which ATP and biotynilated peptide substrate are added. Substrate phosphorylation is a function of the HTRF signal measured following the addition of Cisbio-HTRF reagents.

Zap70 (kinase domain) = biological target: T2, Zap70 (kinase domain) (Homo sapiens, UniProt P43403); assay: Inhibition of enzymatic Zap70 kinase activity (HTRF); assay type: biochemical
T2 construct: Zap70 (kinase domain)
T2 sequence (P43403 338-600 limits assumed): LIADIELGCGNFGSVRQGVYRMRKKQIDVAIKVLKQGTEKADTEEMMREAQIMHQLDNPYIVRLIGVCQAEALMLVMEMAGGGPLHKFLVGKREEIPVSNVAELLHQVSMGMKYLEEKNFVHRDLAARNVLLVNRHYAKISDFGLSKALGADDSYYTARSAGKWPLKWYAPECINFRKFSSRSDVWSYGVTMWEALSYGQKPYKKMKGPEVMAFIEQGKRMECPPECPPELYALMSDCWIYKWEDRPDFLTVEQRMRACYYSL
Description: as §1

BaF3/Tel-KIT = biological target: T3, BaF3/Tel-KIT (Homo sapiens, UniProt P10721); assay: BaF3/Tel-KIT cellular proliferation assay; assay type: cell-based, murine; details: read-out: IC50 in BaF3/Tel-KIT cellular assay
T3 construct: fused on or other part: Dimerizing part of Tel (ETV6), fused to c-Kit; P41212 (Transcription factor ETV6)
T3 sequence (P10721 589-937 limits assumed, change not shown): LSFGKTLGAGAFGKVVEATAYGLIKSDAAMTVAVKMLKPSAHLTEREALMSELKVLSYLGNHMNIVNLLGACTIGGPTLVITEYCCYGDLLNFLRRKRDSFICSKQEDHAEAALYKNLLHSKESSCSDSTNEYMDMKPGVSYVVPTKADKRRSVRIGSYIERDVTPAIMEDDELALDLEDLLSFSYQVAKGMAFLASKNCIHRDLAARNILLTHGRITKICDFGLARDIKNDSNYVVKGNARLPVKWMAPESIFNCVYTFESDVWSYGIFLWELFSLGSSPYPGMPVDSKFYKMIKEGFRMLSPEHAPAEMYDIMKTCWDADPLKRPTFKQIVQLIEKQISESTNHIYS
Description: (§2) Compounds of the invention are tested for their antiproliferative effect on Ba/F3 cells expressing either Tel-TrkA, Tel-TrkB or Tel-TrkC and an additional panel of 34 selected diverse kinases activated by fusion to the dimerizing partners Bcr or Tel (Abl, AlK, BMX, EphA3, EphB2, FGFR2, FGFR3, FGFR4, FGR, FLT1, FLT3, FLT4, FMS, IGF1R, InsR, JAK1, JAK2, JAK3, KDR, Kit, Lck, Lyn, MER, MET, PDGFRb, RET, RON, Ros-1, Src, Syk, TIE2, TYK2, Tie1, ZAP70). The antiproliferative effect of these compounds on the different cell lines and on the non transformed cells were tested at 12 different concentrations of 3-fold serially diluted compounds in 384 well plates as described above (in media lacking IL3). The IC50 values of the compounds the different cell lines were determined from the dose response curves obtained as describe above.
Compounds were tested for their ability to inhibit the proliferation of wt Ba/F3 cells and Ba/F3 cells transformed with Tel c-Kit fused tyrosine kinases. Untransformed Ba/F3 cells are maintained in media containing recombinant IL3. Cells are plated into 384 well TC plates at 5,000 cells in 50 ul media per well and test compound at 0.06 nM to 10 μM is added. […] After incubating the cells, 25 μL of BRIGHT GLO® (Promega) is added to each well following manufacturer's instructions and the plates are read using Analyst GT—Luminescence mode—50000 integration time in RLU.

BaF3/Tel-Syk = biological target: T4, BaF3/Tel-Syk (Homo sapiens, UniProt P43405); assay: BaF3/Tel-Syk cellular proliferation assay; assay type: cell-based, murine; details: read-out: IC50 in BaF3/Tel-Syk cellular assay
T4 construct: fused on or other part: Dimerization domain of Tel (ETV6), fused to Syk; it is part of the key as ETV6; The host cells also express luciferase, which serves only as the read-out; P41212 (Transcription factor ETV6)
Description: (§3) Cells are maintained in RPMI/10% fetal calf serum (RPMI/FCS) supplemented with penicillin 50 μg/mL, streptomycin 50 μg/mL and L-glutamine 200 mM. Untransformed Ba/F3 cells are similarly maintained with the addition of murine recombinant IL3. Cells are dispensed into 384-well format plate at 5000 cell/well in 50 μL of culture medium. Compounds of the invention are dissolved and diluted in dimethylsufoxide (DMSO). Twelve points 1:3 serial dilutions are made into DMSO to create concentrations gradient ranging from 10 mM to 0.05 μM. Cells are added with 50 nL of diluted compounds and incubated for 48 hours in cell culture incubator. Luminiscent signal is measured following the addition of Bright Glo® (Promega) luciferase substrate. IC50 values are calculated by linear regression analysis of the percentage inhibition of each compound at 12 concentrations.

BaF3/Tel-FMS = biological target: T5, BaF3/Tel-FMS (Homo sapiens, UniProt P07333); assay: BaF3/Tel-FMS cellular proliferation assay; assay type: cell-based, murine; details: read-out: IC50 in BaF3/Tel-FMS cellular assay
T5 construct: fused on or other part: Dimerizing part of Tel (ETV6), fused to FMS; it is part of the key as ETV6; P41212 (Transcription factor ETV6)
T5 sequence (P07333 582-910 limits assumed): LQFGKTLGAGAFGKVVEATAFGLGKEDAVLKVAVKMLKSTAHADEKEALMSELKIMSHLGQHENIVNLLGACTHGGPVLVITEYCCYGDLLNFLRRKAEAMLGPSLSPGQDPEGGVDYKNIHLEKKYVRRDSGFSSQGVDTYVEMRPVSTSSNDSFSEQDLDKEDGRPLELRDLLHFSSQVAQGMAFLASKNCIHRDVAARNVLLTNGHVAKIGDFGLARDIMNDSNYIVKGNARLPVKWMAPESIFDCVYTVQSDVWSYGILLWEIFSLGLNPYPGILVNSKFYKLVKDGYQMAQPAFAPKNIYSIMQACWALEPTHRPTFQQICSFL
Description: as §2

BaF3/Tel-KDR = biological target: T6, BaF3/Tel-KDR (Homo sapiens, UniProt P35968); assay: BaF3/Tel-KDR cellular proliferation assay; assay type: cell-based, murine; details: read-out: IC50 in BaF3/Tel-KDR cellular assay
T6 construct: fused on or other part: Dimerization domain of Tel (ETV6), fused to KDR; it is part of the key as ETV6; The host cells also express luciferase, which serves only as the read-out; P41212 (Transcription factor ETV6)
T6 sequence (P35968 834-1162 limits assumed, change not shown): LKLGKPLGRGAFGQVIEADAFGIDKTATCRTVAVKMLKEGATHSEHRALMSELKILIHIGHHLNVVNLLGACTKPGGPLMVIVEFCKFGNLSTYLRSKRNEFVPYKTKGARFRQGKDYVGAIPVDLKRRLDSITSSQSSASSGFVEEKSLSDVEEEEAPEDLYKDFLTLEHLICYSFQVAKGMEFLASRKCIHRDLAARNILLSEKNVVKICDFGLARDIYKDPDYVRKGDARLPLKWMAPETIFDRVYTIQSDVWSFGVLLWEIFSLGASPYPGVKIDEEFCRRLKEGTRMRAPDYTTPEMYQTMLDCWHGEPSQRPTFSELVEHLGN
Description: as §3

[1] = IC50 for Syk inhibition, Table 2, read-out: Syk HTRF

SMILES | IC50 (hSyk (full length); [1]) | further results
CNc1nc(-c2ccc(C(C)(C)O)nc2)cc2ncn(C)c(=O)c12 [Example 352] | 0.376 µM | 
COc1ccc(-c2cc3ncn(C)c(=O)c3c(NCCc3ccccn3)n2)cc1OC [Example 189] | 0.258 µM | 
CC(C)Nc1nc(-c2ccc(C(C)(C)O)nc2)cc2ncn(C)c(=O)c12 [Example 6] | 0.19 µM | 
O=c1[nH]cnc2cc(-c3ccccc3)nc(Nc3ccc(N4CCOCC4)cc3)c12 [Example 4a, 5-(4-morpholinophenylamino)-7-phenylpyrido[4,3-d]pyrimidin-4(3H)-one] |  | IC50 (hSyk (full length); read-out: IC50 in Syk enzymatic assay): 0.09 µM; IC50 (Zap70 (kinase domain)): 38 µM; GI50 (BaF3/Tel-KIT): 0.03 µM; GI50 (BaF3/Tel-Syk): 0.16 µM; GI50 (BaF3/Tel-FMS): 0.007 µM; GI50 (BaF3/Tel-KDR): 1.86 µM
COc1cc(-c2cc3ncn(C)c(=O)c3c(NCc3ccncc3)n2)ccc1N [Example 194] | 0.104 µM | 
COc1ccc(-c2cc3ncn(C)c(=O)c3c(NCc3ccncc3)n2)cc1OC [Example 114] | 0.04 µM | 
COCCOc1cc(-c2cc3ncn(C)c(=O)c3c(NCC(F)F)n2)ccc1OC [Example 270] | 0.139 µM | 
Cn1cnc2cc(-c3ccc4c(c3)NC(=O)C(C)(C)O4)nc(NCC(F)F)c2c1=O [Example 273] | 0.198 µM | 
CNc1cc(CNc2nc(-c3ccc(OC)c(OC)c3)cc3ncn(C)c(=O)c23)ccn1 [Example 183] | 0.126 µM | 
CC(C)Nc1nc(-c2cnn(C)c2)cc2ncn(C)c(=O)c12 [Example 317] | 0.126 µM | 

More lines, main results first:

IC50 (hSyk (full length); [1]) | SMILES | further results
0.061 µM | O=c1[nH]cnc2cc(NCc3ccncc3)nc(Nc3ccc(N4CCOCC4)cc3)c12 [Example 25] | 
0.375 µM | Cn1cnc2cc(-c3cccc(S(C)(=O)=O)c3)nc(NC3CC3)c2c1=O [Example 349] | 
1.12 µM | O=c1[nH]cnc2cc(-c3cc(Cl)ccc3Cl)nc(Nc3ccc(N4CCOCC4)cc3)c12 [Example 254] | 
0.531 µM | COc1ccc(-c2cc3ncn(C)c(=O)c3c(Nc3ccc4cn[nH]c4c3)n2)cc1OC [Example 418] | 
0.114 µM | COc1cc(-c2cc3ncn(C)c(=O)c3c(NC[C@H](C)O)n2)ccc1OCCCN1CCOCC1 [Example 372] | 
0.0427 µM | CN1CCC(c2ccc(Nc3nc(N4CCC(N5CCCCC5)CC4)cc4nc[nH]c(=O)c34)cc2)CC1 [Example 313] | 
0.113 µM | COc1cc(-c2cc3ncn(C)c(=O)c3c(NCC(F)F)n2)ccc1OCCCN1CCOCC1 [Example 366] | 
0.131 µM | CNS(=O)(=O)c1cc(-c2cc3ncn(C)c(=O)c3c(NC3CCC3)n2)ccc1OC [Example 415] | 
0.34 µM | CC(C)Nc1nc(-c2cnc3[nH]ccc3c2)cc2ncn(C)c(=O)c12 [Example 324] | 
0.0843 µM | Cn1cnc2cc(-c3ccc4c(c3)NC(=O)C4)nc(NCc3ccnc(N)c3)c2c1=O [Example 278] | 
0.823 µM | O=c1[nH]cnc2cc(N3CCS(=O)(=O)CC3)nc(Nc3ccc(N4CCOCC4)nc3)c12 [Example 305] | 
0.00566 µM | NCCCNc1cc2nc[nH]c(=O)c2c(Nc2ccc(N3CCOCC3)cc2)n1 [Example 13] | 
